Measurements taken from US20260242419A1, “A CYCLIC PEPTIDE FOR TRAPPING INTERLEUKIN-1 BETA” (Merck Sharp & Dohme LLC, priority 2023, published 2026).
Starred links: 1 amine or outer side, 2 acyl side, 3 side chain; linkers in the order of their positions; H or OH if unused. Non-standard residues stand in square brackets, D forms with d. Residues, ends and D or L forms follow the SMILES beside them. Phe(4-(trans-4-COOH-cHex)) = N[C@@H](Cc1ccc([C@H]2CC[C@H](C(=O)O)CC2)cc1)C(=O)O; Phe(4-(cis-4-COOH-cHex)) = N[C@@H](Cc1ccc([C@H]2CC[C@@H](C(=O)O)CC2)cc1)C(=O)O; X16 = Cn1cnc(-c2ccc(C[C@H]3CCN([*:1])[C@H]3C(=O)[*:2])cc2)c1; Trp(βS-Me,4-F) = C[C@@H](c1c[nH]c2cccc(F)c12)[C@H](N)C(=O)O; 3Aminoazetidine3carboxyl = O=C(C1(N[*:1])CN([*:3])C1)[*:2]; Bip(4'-COOH) = N[C@@H](Cc1ccc(-c2ccc(C(=O)O)cc2)cc1)C(=O)O; dPro(4R-Bzl(4-F)) = O=C(O)[C@H]1C[C@@H](Cc2ccc(F)cc2)CN1; X9 = O=C([C@H]1[C@@H](Cc2cncnc2)CCN1[*:1])[*:2]; Ala(pyrimidin-5-yl) = N[C@@H](Cc1cncnc1)C(=O)O; Phe(4-COOH) = N[C@@H](Cc1ccc(C(=O)O)cc1)C(=O)O; Pro(cis-4-F) = O=C(O)[C@@H]1C[C@H](F)CN1; 2Pal = N[C@@H](Cc1ccccn1)C(=O)O; 3Pal = N[C@@H](Cc1cccnc1)C(=O)O; 4Pal = N[C@@H](Cc1ccncc1)C(=O)O; αMeK = C[C@](N)(CCCCN)C(=O)O; Api = NC1(C(=O)O)CCNCC1; Dab = NCC[C@H](N)C(=O)O; Aib = CC(C)(N)C(=O)O

The compounds below were run against T1, IL-1β (Homo sapiens, UniProt P01584) (assay: IL-6 assay in MRC5 cells: inhibition of IL-1β induced IL-6 secretion (AlphaLISA)). Conditions: inhibition of IL-1β induced IL-6 secretion in MRC5 cells; read-out: MRC5 IC50.
T1 construct: purchased BioLegend 579404
T1 sequence (P01584 117-269): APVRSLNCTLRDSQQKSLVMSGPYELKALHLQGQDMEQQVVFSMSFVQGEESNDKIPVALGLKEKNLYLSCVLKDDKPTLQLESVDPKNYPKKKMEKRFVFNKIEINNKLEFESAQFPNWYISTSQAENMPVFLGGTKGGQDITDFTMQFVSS
Assay type: cell-based
Procedure, shortened: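 Compound was pre-incubated 1 h at ambient temperature with recombinant human IL-1β at 2λ EC80 before adding human lung fibroblast MRC5 cells (3000/well) in EMEM with 0.025% BSA. After overnight culture at 37 °C, 5% CO2, secreted IL-6 in conditioned medium was measured by AlphaLISA; IC50 from 4-parameter logistic fits.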

SMILES	IC50 [nM]
C[C@@H](c1c[nH]c2cccc(F)c12)[C@@H]1NC(=O)[C@@H]2C[C@H](F)CN2C(=O)CNC(=O)[C@H](Cc2ccc(C(=O)O)cc2)NC(=O)[C@H](Cc2ccncc2)NC(=O)[C@H](Cc2ccc(-c3ccc(C(=O)O)cc3)cc2)NC(=O)[C@H]2C[C@@H](Cc3ccc(F)cc3)CN2C(=O)CNC(=O)[C@H](CCN)NC(=O)[C@H](CCC(N)=O)NC(=O)[C@H](Cc2cncnc2)NC(=O)C2(CCNCC2)NC(=O)[C@H](Cc2c[nH]c3ccccc23)NC(=O)[C@H](CCC(=O)O)NC(=O)C(C)(C)NC1=O [Example 65] (cyclo([Bip(4'-COOH)][4Pal][Phe(4-COOH)]G[Pro(cis-4-F)][Trp(βS-Me,4-F)][Aib]EW[Api][Ala(pyrimidin-5-yl)]Q[Dab]G[dPro(4R-Bzl(4-F))]))	0.025
C[C@@H](c1c[nH]c2cccc(F)c12)[C@@H]1NC(=O)[C@@H]2C[C@H](F)CN2C(=O)CNC(=O)[C@H](Cc2ccc(C(=O)O)cc2)NC(=O)[C@H](Cc2ccncc2)NC(=O)[C@H](Cc2ccc(-c3ccc(C(=O)O)cc3)cc2)NC(=O)[C@H]2C[C@@H](Cc3ccc(F)cc3)CN2C(=O)CNC(=O)[C@H](CCN)NC(=O)[C@H](CCC(N)=O)NC(=O)[C@H](Cc2cncnc2)NC(=O)C(C)(C)NC(=O)[C@H](Cc2c[nH]c3ccccc23)NC(=O)[C@H](CCC(=O)O)NC(=O)[C@](C)(CCCCN)NC1=O [Example 66] (cyclo([Bip(4'-COOH)][4Pal][Phe(4-COOH)]G[Pro(cis-4-F)][Trp(βS-Me,4-F)][αMeK]EW[Aib][Ala(pyrimidin-5-yl)]Q[Dab]G[dPro(4R-Bzl(4-F))]))	0.028
C[C@@H](c1c[nH]c2cccc(F)c12)[C@@H]1NC(=O)[C@@H]2C[C@H](F)CN2C(=O)CNC(=O)[C@H](Cc2ccc(C(=O)O)cc2)NC(=O)[C@H](Cc2ccncc2)NC(=O)[C@H](Cc2ccc(-c3ccc(C(=O)O)cc3)cc2)NC(=O)[C@H]2[C@@H](Cc3cncnc3)CCN2C(=O)CNC(=O)[C@H](CCN)NC(=O)[C@H](CCC(N)=O)NC(=O)[C@H](Cc2cncnc2)NC(=O)C(C)(C)NC(=O)[C@H](Cc2c[nH]c3ccccc23)NC(=O)[C@H](CCC(=O)O)NC(=O)C(C)(C)NC1=O [Example 71] (cyclo([Bip(4'-COOH)][4Pal][Phe(4-COOH)]G[Pro(cis-4-F)][Trp(βS-Me,4-F)][Aib]EW[Aib][Ala(pyrimidin-5-yl)]Q[Dab]G[X9]))	0.058
C[C@@H](c1c[nH]c2cccc(F)c12)[C@@H]1NC(=O)[C@@H]2C[C@H](F)CN2C(=O)CNC(=O)[C@H](Cc2ccc(C(=O)O)cc2)NC(=O)[C@H](Cc2ccncc2)NC(=O)[C@H](Cc2ccc(-c3ccc(C(=O)O)cc3)cc2)NC(=O)[C@H]2C[C@@H](Cc3ccc(F)cc3)CN2C(=O)CNC(=O)[C@H](CCN)NC(=O)[C@H](CCC(N)=O)NC(=O)[C@H](Cc2ccccn2)NC(=O)C(C)(C)NC(=O)[C@H](Cc2c[nH]c3ccccc23)NC(=O)[C@H](CCC(=O)O)NC(=O)C(C)(C)NC1=O [Example 73] (cyclo([Bip(4'-COOH)][4Pal][Phe(4-COOH)]G[Pro(cis-4-F)][Trp(βS-Me,4-F)][Aib]EW[Aib][2Pal]Q[Dab]G[dPro(4R-Bzl(4-F))]))	0.031

Continued by falling IC50, values first:

IC50 [nM]	SMILES
0.03	C[C@@H](c1c[nH]c2cccc(F)c12)[C@@H]1NC(=O)[C@@H]2C[C@H](F)CN2C(=O)CNC(=O)[C@H](Cc2ccc(C(=O)O)cc2)NC(=O)[C@H](Cc2ccncc2)NC(=O)[C@H](Cc2ccc([C@H]3CC[C@@H](C(=O)O)CC3)cc2)NC(=O)[C@H]2C[C@@H](Cc3ccc(F)cc3)CN2C(=O)CNC(=O)[C@H](CCN)NC(=O)[C@H](CCC(N)=O)NC(=O)[C@H](Cc2cncnc2)NC(=O)C2(CNC2)NC(=O)[C@H](Cc2c[nH]c3ccccc23)NC(=O)[C@H](CCC(=O)O)NC(=O)C(C)(C)NC1=O [Example 69] (cyclo([Phe(4-(cis-4-COOH-cHex))][4Pal][Phe(4-COOH)]G[Pro(cis-4-F)][Trp(βS-Me,4-F)][Aib]EW[3Aminoazetidine3carboxyl][Ala(pyrimidin-5-yl)]Q[Dab]G[dPro(4R-Bzl(4-F))]))
0.029	C[C@@H](c1c[nH]c2cccc(F)c12)[C@@H]1NC(=O)[C@@H]2C[C@H](F)CN2C(=O)CNC(=O)[C@H](Cc2ccc(C(=O)O)cc2)NC(=O)[C@H](Cc2ccncc2)NC(=O)[C@H](Cc2ccc([C@H]3CC[C@H](C(=O)O)CC3)cc2)NC(=O)[C@H]2C[C@@H](Cc3ccc(F)cc3)CN2C(=O)CNC(=O)[C@H](CCN)NC(=O)[C@H](CCC(N)=O)NC(=O)[C@H](Cc2cncnc2)NC(=O)C2(CNC2)NC(=O)[C@H](Cc2c[nH]c3ccccc23)NC(=O)[C@H](CCC(=O)O)NC(=O)C(C)(C)NC1=O [Example 68] (cyclo([Phe(4-(trans-4-COOH-cHex))][4Pal][Phe(4-COOH)]G[Pro(cis-4-F)][Trp(βS-Me,4-F)][Aib]EW[3Aminoazetidine3carboxyl][Ala(pyrimidin-5-yl)]Q[Dab]G[dPro(4R-Bzl(4-F))]))
0.027	C[C@@H](c1c[nH]c2cccc(F)c12)[C@@H]1NC(=O)[C@@H]2C[C@H](F)CN2C(=O)CNC(=O)[C@H](Cc2ccc(C(=O)O)cc2)NC(=O)[C@H](Cc2ccncc2)NC(=O)[C@H](Cc2ccc(-c3ccc(C(=O)O)cc3)cc2)NC(=O)[C@H]2C[C@@H](Cc3ccc(F)cc3)CN2C(=O)CNC(=O)[C@H](CCN)NC(=O)[C@H](CCC(N)=O)NC(=O)[C@H](Cc2cccnc2)NC(=O)C(C)(C)NC(=O)[C@H](Cc2c[nH]c3ccccc23)NC(=O)[C@H](CCC(=O)O)NC(=O)C(C)(C)NC1=O [Example 72] (cyclo([3Pal]Q[Dab]G[dPro(4R-Bzl(4-F))][Bip(4'-COOH)][4Pal][Phe(4-COOH)]G[Pro(cis-4-F)][Trp(βS-Me,4-F)][Aib]EW[Aib]))
0.021	C[C@@H](c1c[nH]c2cccc(F)c12)[C@@H]1NC(=O)[C@@H]2C[C@H](F)CN2C(=O)CNC(=O)[C@H](Cc2ccc(C(=O)O)cc2)NC(=O)[C@H](Cc2ccncc2)NC(=O)[C@H](Cc2ccc(-c3ccc(C(=O)O)cc3)cc2)NC(=O)[C@H]2C[C@@H](Cc3ccc(F)cc3)CN2C(=O)CNC(=O)[C@H](CCN)NC(=O)[C@H](CCC(N)=O)NC(=O)[C@H](Cc2cncnc2)NC(=O)[C@](C)(CCCCN)NC(=O)[C@H](Cc2c[nH]c3ccccc23)NC(=O)[C@H](CCC(=O)O)NC(=O)C(C)(C)NC1=O [Example 67] (cyclo([4Pal][Phe(4-COOH)]G[Pro(cis-4-F)][Trp(βS-Me,4-F)][Aib]EW[αMeK][Ala(pyrimidin-5-yl)]Q[Dab]G[dPro(4R-Bzl(4-F))][Bip(4'-COOH)]))
0.014	C[C@@H](c1c[nH]c2cccc(F)c12)[C@@H]1NC(=O)[C@@H]2C[C@H](F)CN2C(=O)CNC(=O)[C@H](Cc2ccc(C(=O)O)cc2)NC(=O)[C@H](Cc2ccncc2)NC(=O)[C@H](Cc2ccc(-c3ccc(C(=O)O)cc3)cc2)NC(=O)[C@H]2[C@@H](Cc3ccc(-c4cn(C)cn4)cc3)CCN2C(=O)CNC(=O)[C@H](CCN)NC(=O)[C@H](CCC(N)=O)NC(=O)[C@H](Cc2cncnc2)NC(=O)C(C)(C)NC(=O)[C@H](Cc2c[nH]c3ccccc23)NC(=O)[C@H](CCC(=O)O)NC(=O)C(C)(C)NC1=O [Example 64] (cyclo([Bip(4'-COOH)][4Pal][Phe(4-COOH)]G[Pro(cis-4-F)][Trp(βS-Me,4-F)][Aib]EW[Aib][Ala(pyrimidin-5-yl)]Q[Dab]G[X16]))
